Data on two compounds can be found in article PMC9854712 (Antioxidants, 2023).

Usually GI50 stands for the concentration at which growth is held to half of that of the control. Read a low GI50 as more potent growth inhibition. As a reminder, the IC50 is the midpoint of a concentration-inhibition curve. Read a low IC50 as inhibition by little substance. The term inhibition denotes the percentage by which the read-out fell short of the control. Low values mean little suppression, high ones strong suppression.

In experiment [1] the test system is melanoma and ovarian cancer cell lines. The experiment can be described thus: NCI-60 Five-Dose assay, melanoma and ovarian lines. The experiment is classed as cell-based, human. As for the experimental part:
(§1) Compounds 14a and 17a were submitted to the Developmental Therapeutics Program (DTP) of National Cancer Institute (NCI). […] […] Cells grew in the RPMI 1640 medium containing 5% fetal bovine serum and 2 mM L-glutamine and were inoculated into 96-well microtiter plates in 100 μL at plating densities ranging from 5.000 to 40.000 cells/well. The microtiter plates inoculated with cells were incubated at 37 °C, in 5% humidified CO2 for 24 h prior to addition of experimental drugs. Then, experimental drugs were added, and the microtiter plates were incubated for 48 h. The protocol is available on https://dtp.cancer.gov/discovery_development/nci-60/methodology.htm accessed on 31 December 2022.

In another experiment the test system is SK-MEL-5 (melanoma). The experiment can be described thus: NCI-60 Five-Dose assay, SK-MEL-5. To be noted: Homo sapiens, 48 h. It is filed as cell-based. As to the method: as §1
For another experiment, the system named is DU-145 cells. The experiment can be described thus: MTT cell viability assay, DU-145. The experiment is classed as cell-based. The settings on record: Homo sapiens, DU-145, 48 h, read-out: Cell growth % at 10 µM, DU-145. The essentials:
(§2)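 Cells grown in RPMI 1640 with 10% FBS at 37 °C, 5% CO2 were seeded at 10^4/well and exposed 48 h to compound (0.5–100 µM dose range). Values are % viability at 10 µM, with IC50 ratios non-tumorigenic/tumor as selectivity index.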
(Tetrazolium dyes change colour on reduction, which living cells bring about.)

Another experiment concerns HT-29 cells. The experiment can be described thus: MTT cell viability assay, HT-29. To be noted: Homo sapiens; for viability at 10 µM: HT-29, 10 µM, 48 h, read-out: Cell growth % at 10 µM, HT-29; for IC50: HT-29, 48 h. It is filed as cell-based.
The subject of a further experiment is BEAS-2B cells. The experiment can be described thus: MTT cell viability assay, BEAS-2B (non-tumorigenic). The experiment is classed as cell-based. To be noted: Homo sapiens, 48 h, nonmalignant bronchial epithelium. As for the experimental part:
(§3) The cell lines were obtained from the American Type Culture Collection (ATCC). Five tumor cell lines (MDA-MB-231, MCF-7, HCT116, HTB-54, and DU-145) and two non-tumorigenic cells (184B5 and BEAS-2B) were grown in RPMI 1640 medium (Gibco), and the HT-29 tumor cell line was grown in McCoy’s medium. Both mediums were supplemented with 10% fetal bovine serum (FBS; Gibco) and 1% antibiotics (10.00 units/mL penicillin and 10.00 μg/mL streptomycin; Gibco). Cells were preserved in tissue culture flasks at 37 °C and 5% CO2. The culture medium was replaced every three days.
(§4) The effect of each compound on cell viability was tested using the MTT assay. […] Selected compounds were then tested at seven different concentrations (0.5–100 μM) in MCF-7, HCT116, HT-29, HTB-54, 184B5 and BEAS-2B cells. Cells were seeded at 10^4 per well onto flat-bottomed 96-well culture plates. They were treated with either DMSO or increasing concentration of the corresponding compound for 48 h. Then, they were incubated with 20 μL of 3-(4,5-dimethylthiazol-2-yl)-2,5-diphenyltetrazolium bromide (MTT) (2 mg /mL stock; Aldrich) for 2,5 h and analyzed for their ability to generate a purple formazan dye. These formazan crystals were dissolved in 50 μL of DMSO. The absorbance was measured at a wavelength of 550 nm and the ratio of viable cells was calculated.
Results are expressed as cell viability % at 10 μM. Selectivity index were calculated as the ratio of the IC50 values determined for the non-malignant and the tumor cells in breast (IC50 (184B5)/IC50 (MCF-7)) and lung (IC50 (BEAS-2B)/IC50 (HTB-54)) cell lines. Data were obtained from at least three independent experiments performed in triplicates.

The test system of another experiment is HTB-54 cells. The experiment can be described thus: MTT cell viability assay, HTB-54. It is filed as cell-based. The settings on record: for viability at 10 µM / IC50: HTB-54, 48 h, MTT; for viability at 10 µM: read-out: Cell growth % at 10 µM, HTB-54; for SI (lung): IC50 (BEAS-2B)/IC50 (HTB-54). The method in brief: as §2
Another experiment concerns the target T1, AChE (Rattus norvegicus, UniProt P37136).
T1 construct: from tissue; host or cells: frontal cortex of male Wistar rats (crude homogenate)
T1 sequence (P37136 32-614): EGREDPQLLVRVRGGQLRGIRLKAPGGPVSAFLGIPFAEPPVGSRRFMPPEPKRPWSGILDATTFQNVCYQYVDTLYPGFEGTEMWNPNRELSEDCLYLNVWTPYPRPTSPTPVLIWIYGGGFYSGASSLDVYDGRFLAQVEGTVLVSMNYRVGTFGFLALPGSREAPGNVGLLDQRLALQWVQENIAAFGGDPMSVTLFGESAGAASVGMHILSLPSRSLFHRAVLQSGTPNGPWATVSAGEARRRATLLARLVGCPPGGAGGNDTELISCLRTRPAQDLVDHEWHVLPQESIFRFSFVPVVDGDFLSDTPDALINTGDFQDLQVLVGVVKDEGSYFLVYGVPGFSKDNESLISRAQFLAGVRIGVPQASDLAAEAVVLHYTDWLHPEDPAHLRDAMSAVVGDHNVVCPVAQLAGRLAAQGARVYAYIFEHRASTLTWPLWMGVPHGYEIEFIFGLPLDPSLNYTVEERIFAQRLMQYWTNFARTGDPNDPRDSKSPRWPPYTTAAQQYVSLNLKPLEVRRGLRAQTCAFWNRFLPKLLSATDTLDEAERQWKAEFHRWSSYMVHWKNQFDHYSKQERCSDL
The experiment can be described thus: AChE inhibition by Ellman's method (rat frontal cortex homogenate). The experiment is classed as biochemical. The essentials:
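Ellman assay using male Wistar rat frontal cortex homogenate in 75 mM sodium phosphate pH 7.4, with acetylthiocholine iodide as substrate, 8 min incubation. Reaction stopped with SDS, then DTNB added; thionitrobenzoate colour read at 405 nm. Mean ± SD from three experiments.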
A general note: Ellman's reagent forms a yellow product with free thiols.

The test system of experiment [2] is HTB-54, DU-145, HT-29 and MDA-MB-231 cancer cell lines. The experiment can be described thus: cells. The experiment is classed as cell-based. The settings on record: against the panel of the four cancer cell lines. As for the experimental part:
as §3, §4
As a first approach, all the compounds were tested in vitro against lung (HTB-54), prostatic (DU-145), colon (HT-29), and triple-negative breast (MDA-MB-231) cancer cell lines at two concentrations (50 and 10 µM) for 48 h. Then, the MTT colorimetric assay was used to evaluate cell proliferation after the treatment. The data are expressed as the percentage of cell growth ± SD in at least three independent experiments performed in quadruplicates (Table S1).

The subject of a further experiment is SNB-19 (CNS). The experiment can be described thus: NCI-60 Five-Dose assay, SNB-19. To be noted: Homo sapiens, 48 h. It is filed as cell-based. As for the experimental part: as §1

With `C=CC[Se]C(=O)c1ccccc1OC(C)=O` [Compound 14a, 2-(allylselanylcarbonyl)phenylacetate], the LD50 entry in [1] is listed as “below 9.2 µM”. Also, the values for the concentration for 50% growth inhibition (GI50) with SK-MEL-5 (melanoma) and in the experiment on SNB-19 (CNS) were 1.9 µM and 0.49 µM, respectively. Further, the viability at 10 µM with DU-145 cells is 16.9 ± 8.6%; with HT-29 cells, 53.9 ± 5.3%; in the experiment on HTB-54 cells it was 34.2 ± 6.2%; in experiment [2], < 55%. Also, the concentration for half-maximal inhibition (IC50) is 6.4 ± 1 µM in the experiment with HT-29 cells, 7.1 ± 2.4 µM with BEAS-2B cells, 9.9 ± 1.1 µM with HTB-54 cells and 0.9 ± 0.2 µM against AChE. Also, the “SI (lung)” value in the experiment on HTB-54 cells came to 0.7. The “% AChE Inhibition” value at AChE (at 10^−6 M, Ellman's method) is reported as 43.5 ± 2.6%. At 1 µM the inhibition on AChE (at 10^−6 M, Ellman's method) was 43.5%.
On to `C=CC[Se]C(=O)Cc1c(C)n(C(=O)c2ccc(Cl)cc2)c2ccc(OC)cc12` [Compound 17a, Se-allyl 2-[1-(4-chlorobenzoyl)-5-methoxy-2-methyl-1H-indol-3-yl]ethaneselenoate], for which, in experiment [1], the LD50 entry was “below 9.2 µM”. Also, the figures for the concentration for 50% growth inhibition (GI50) in the experiment on SK-MEL-5 (melanoma) and with SNB-19 (CNS) were 1.7 µM and 0.66 µM, respectively. Moreover, the viability at 10 µM in the experiment on DU-145 cells is 16.3 ± 8.4%; in the experiment with HT-29 cells it was 38.7 ± 6%; in the experiment on HTB-54 cells it was 21.9 ± 6.5%; in experiment [2], < 55%. Also, the IC50 was 5.9 ± 0.8 µM with HT-29 cells, 6.3 ± 2.3 µM with BEAS-2B cells and 7.9 ± 1.9 µM in the experiment on HTB-54 cells. Besides, in the experiment on HTB-54 cells, the “SI (lung)” value worked out at 0.8. Moreover, 1 µM produced 19.2 ± 8.3% inhibition at AChE (at 10^−6 M, Ellman's method).
